How the values were obtained:
[1] = biological target: wild type MLL1 four-member complex (MLL1-4C) (Homo sapiens, UniProt Q03164); assay: MLL1 LC-MS assay; assay type: biochemical; conditions: 30 nM MLL1-4C, 2.5 μM SAM, 10 μM H3K4me0; SAH production by LC-MS/MS; read-out: MLL1 LCMS
Description: The compounds of the present disclosure were serially and separately diluted 3-fold in DMSO to obtain a total of eight or twelve concentrations. Then the test compounds at each concentration (120 nL of each) were transferred by Mosquito into white Proxiplate plus 384-well microplate (PerkinElmer). Solutions (6 μL) of 60 nM wild type MLL1 four-member complex (MLL1-4C) and 5 μM SAM in the reaction buffer (20 mM Tris-HCl, pH8.0, 0.01% Tween 20, 1 mM DTT, 10 mM MgCl2, 0.01% BSA) were added to the wells that were then incubated with the test compound for 20 min. A 6 μL solution of 20 μM of the peptide substrate H3K4me0 (histone H3[1-21]-Biotin) in the reaction buffer was added to initiate each reaction. The final components in the reaction solution include 30 nM MLL1-4C, 2.5 μM SAM, and 10 μM H3K4me0 with varying concentration of the compounds. A positive control consisted of 30 nM MLL1-4C, 2.5 μM SAM, and 10 μM substrate in the absence of the test compound, and a negative control consisted of 2.5 μM SAM, and 10 μM substrate only. Each reaction was incubated at rt for 120 min, then stopped by addition of 3 μL per of quench solution (2.5% TFA with 320 nM d4-SAH). The reaction mixture was centrifuged (Eppendorf centrifuge 5810, Rotor A-4-62) for 2 min at 2000 rmp. The SAH production from the enzymatic assays were monitored by LC-MS/MS on an API 4000 triple quadrupole mass spec with TurboIon Spray (Applied Biosystem) coupled with Prominenece UFLC(Shimazu). The level of SAH production were then normalized based on the values coming from the positive and negative controls to give percent enzyme activities. The data were then fit to a dose response equation using the program Helios (Novartis) to get the IC50 values of the test compounds.

[2] = biological target: wild type MLL1 five-member complex (MLL1-5C) (Homo sapiens, UniProt Q03164); assay: MLL1 Flashplate assay; assay type: biochemical; conditions: 2.5 nM MLL1-5C, 0.5 μM 3H-SAM, 1 μM H3K4me0; read-out: MLL1 flash plate
Description: MLL1 Flashplate Assay To assess the compound potency in MLL1 Flashplate assay, compounds were serially diluted 3-fold in DMSO to obtain a total of twelve concentrations. Then the test compounds at each concentration (250 nL of each) were transferred by Mosquito into Corning #3675 384-well plate. Solutions (15 μL) of 4.2 nM wild type MLL1 five-member complex (MLL1-5C) in the assay buffer (20 mM Tris-HCl, pH8.0, 0.01% Tween 20, 1 mM DTT, 0.01% BSA) were added to the wells. A 10 μL solution of 2.5 μM of the peptide substrate H3K4me0 (histone H3[1-21]-Biotin) and 1.25 μM ^3H-SAM in the reaction buffer was then added to initiate each reaction. The final components in the reaction solution include 2.5 nM MLL1-5C, 0.5 μM ^3H-SAM, and 1 μM H3K4me0 with varying concentration of the compounds. A positive control consisted of 2.5 nM MLL1-5C, 0.5 μM ^3H-SAM, and 1 μM substrate in the absence of the test compound, and a negative control consisted of 0.5 μM ^3H-SAM, and 1 μM substrate only. Each reaction was incubated at rt for 90 min, then stopped by addition of 5 μL per of quench solution (0.5 mM SAM in assay buffer). 25 μL of each reaction solution was transferred to FlashPlate streptavidin 384-well microplate (PerkinElmer). After at least 1 h incubation at rt, the wells were washed three times with 0.1% Tween-20 in dH2O using the BioTek plate washer. The plates were then read in MicroBeta (PerkinElmer). The radioactive readouts were then normalized based on the values coming from the positive and negative controls to give percent enzyme activities. The data were then fit to a dose response equation using the program Helios to get the IC50 values of the test compounds.

H3K4me3 in MV4-11 cells = assay: MV4-11 H3K4Me3 cellular ELISA assay; assay type: cell-based; conditions: Homo sapiens, 48 hours, H3K4me3 signal normalized to total H3
Description: MV4-11H3K4Me3 Cellular ELISA Assay
MV4-11 (ATCC® CRL-9591™) was cultured with RPMI1640 medium (Thermo Fisher Scientific, cat #11875) supplemented with 10% FBS (Thermo Fisher Scientific, cat #10099141) and 50 U/ml Penicillin-Streptomycin (Thermo Fisher Scientific, cat #10378016) in humidified incubator at 37° C., 5% CO2.
200 nL compounds dissolved in DMSO were serially diluted at 1:3 ratio for 12 points starting from 10 mM and dispensed into each wells of cell culture plates (PDL-coated ViewPlate-384 Black, FTC, PerkinElmer, #6007710). 3,750 MV4-11 cells in 40 μL culture medium were seeded into each well and treated with desired concentration for 48 hours. After treatment, wash cells with cold phosphate based buffer (PBS, pH 7.4) and aspirate the remaining PBS buffer. Crude histone lysate was extracted by 40 μL 0.5M HCl for 1 hour in 4° C. following neutralization by adding 32 μL neutralization buffer (0.5M Sodium phosphate dibasic, pH˜12.5, 1.25 mM Dithiothreitol, Promega #V3151, Protease Inhibitor Cocktail, Sigma #8340) for each well. 5 μL and 20 μL of histone lysate was loaded to ELISA plate (384 Well Plates, PE HB, White, 6005620) for detection of total H3 and H3K4me3, respectively. Shake the plates gently in 4° C. for overnight. After histone binding, plates were washed with 80 μL PBS/T (PBS with 0.05% Tween-20) and blocked with 50 μL 3% BSA diluted in PBS/T per well for 1 hour. Incubate wells with primary antibody for 1 hour at room temperature using anti-H3K4me3 (CST #9727) and anti-total H3 (CST #9715) diluted 1:2000 in 3% BSA. Plates were then washed with PBS/T for 3 times and incubated with horseradish peroxidase (HRP) conjugated secondary antibody (CST #7074, 1:5000) for 1 hour at room temperature. The abundance of H3K4me3 and total H3 were measured by ECL substrates chemiluminesce (Pierce, #34080) on a plate reader (PerkinElmer EnVison 2104 Mutilable Reader). Percentage inhibition was calculated against DMSO control after normalization of H3K4me3 signal to H3 signal for individual samples. The data were then fit to a dose response curve using GraphPad Prism for IC50 calculation.

IC50 [1] [nM] | SMILES | IC50 [2] [nM] | IC50 (H3K4me3 in MV4-11 cells) [nM]
> 100 | COC[C@H](N)CCCOc1cccc(Cl)c1Cc1cnc2c(N)ncnn12 [Example 6, (R)-7-(2-((4-amino-5-methoxypentyl)oxy)-6-chlorobenzyl)imidazo[2,1-f][1,2,4]triazin-4-amine] |  | 
> 100 | COC[C@H](N)CCCOc1ccccc1Cc1cnc2c(N)ncnn12 [Example 7, (R)-7-(2-((4-amino-5-methoxypentyl)oxy)benzyl)imidazo[2,1-f][1,2,4]triazin-4-amine] |  | 
> 100 | COC[C@H](N)CCCOc1cc(Cl)cc(Br)c1Cc1cnn2c(N)ncnc12 [Example 9, (R)-8-(2-((4-amino-5-methoxypentyl)oxy)-6-bromo-4-chlorobenzyl)pyrazolo[1,5-a][1,3,5] triazin-4-amine] |  | > 3000
> 100 | COC[C@H](N)CCCOc1cccc(Br)c1Cc1cnn2c(N)ncnc12 [Example 10, (R)-8-(2-((4-amino-5-methoxypentyl)oxy)-6-bromobenzyl)pyrazolo[1,5-a][1,3,5]triazin-4-amine] |  | 
> 100 | COC[C@H](N)CCCOc1cccc(Cl)c1Cc1cnn2c(N)ncnc12 [Example 11, (R)-8-(2-((4-amino-5-methoxypentyl)oxy)-6-chlorobenzyl)pyrazolo[1,5-a][1,3,5]triazin-4-amine] |  | > 3000
> 100 | COC[C@H](N)CCCOc1ccccc1Cc1cnn2c(N)ncnc12 [Example 12, (R)-8-(2-((4-amino-5-methoxypentyl)oxy)benzyl)pyrazolo[1,5-a][1,3,5]triazin-4-amine] |  | 
> 100 | COC[C@H](N)CCCOc1cc(Cl)ccc1Cc1cnn2c(N)ncnc12 [Example 13, (R)-8-(2-((4-amino-5-methoxypentyl)oxy)-4-chlorobenzyl)pyrazolo[1,5-a][1,3,5]triazin-4-amine] |  | 
> 100 | COC[C@H](N)CCCOc1c(Cl)cccc1Cc1cnn2c(N)ncnc12 [Example 14, (R)-8-(2-((4-amino-5-methoxypentyl)oxy)-3-chlorobenzyl)pyrazolo[1,5-a][1,3,5]triazin-4-amine] |  | 
50 to 100 | COC[C@H](N)CCCOc1ccc(Cl)c(Cl)c1Cn1cnc2c(N)ncc(Cl)c21 [Example 18, (R)-1-(6-((4-amino-5-methoxypentyl)oxy)-2,3-dichlorobenzyl)-7-chloro-1H-imidazo[4,5-c]pyridin-4-amine] |  | > 3000
50 to 100 | Nc1ncnn2c(Cc3c(OCCC[C@@H](N)C(=O)O)ccc(Cl)c3Cl)cnc12 [Example 24, (R)-2-amino-5-(2-((4-aminoimidazo[2,1-f][1,2,4]triazin-7-yl)methyl)-3,4-dichlorophenoxy) pentanoic acid] |  | > 3000
> 100 | Nc1ncnc2c1ncn2Cc1c(OCC[C@H](N)C(=O)O)ccc(F)c1F [Example 25, O-(2-((6-amino-9H-purin-9-yl)methyl)-3,4-difluorophenyl)-L-homoserine] |  | 
> 100 | CC(C)c1nc(N)c2ncn(Cc3c(Cl)cc(Cl)cc3OCCC[C@@H](N)C(=O)O)c2n1 [Example 26, (R)-2-amino-5-(2-((6-amino-2-isopropyl-9H-purin-9-yl)methyl)-3,5-dichlorophenoxy)pentanoic acid] |  | 
> 100 | Nc1ncc(Cl)c2c1ncn2Cc1c(Cl)cc(Cl)cc1OCCCC(N)C(=O)O (stereo not shown) [Example 28, 2-amino-5-(2-((4-amino-7-chloro-1H-imidazo[4,5-c]pyridin-1-yl)methyl)-3,5-dichlorophenoxy) pentanoic acid] |  | 
< 50 | COC(=O)[C@H](N)CCCOc1ccc(Cl)c(Cl)c1Cn1cnc2c(N)ncnc21 [Example 33, methyl (R)-2-amino-5-(2-((6-amino-9H-purin-9-yl)methyl)-3,4-dichlorophenoxy)pentanoate] |  | 
> 100 | NC(=O)[C@H](N)CCCOc1ccc(Cl)c(Cl)c1Cc1cnc2c(N)ncnn12 [Example 35, (R)-2-amino-5-(2-((4-aminoimidazo[2,1-f][1,2,4]triazin-7-yl)methyl)-3,4-dichlorophenoxy)pentanamide] |  | > 3000
> 100 | NC(=O)[C@H](N)CCCOc1cc(Cl)cc(Cl)c1Cn1cnc2c(N)ncc(Cl)c21 [Example 38, (R)-2-amino-5-(2-((4-amino-7-chloro-1H-imidazo[4,5-c]pyridin-1-yl)methyl)-3,5-dichlorophenoxy)pentanamide] |  | 
> 100 | CNC(=O)[C@H](N)CCCOc1ccc(Cl)c(Cl)c1Cn1cnc2c(N)ncnc21 [Example 40, (R)-2-amino-5-(2-((6-amino-9H-purin-9-yl)methyl)-3,4-dichlorophenoxy)-N-methylpentanamide] |  | 

SMILES | IC50 [1] [nM] | IC50 [2] [nM] | IC50 (H3K4me3 in MV4-11 cells) [nM]
COC[C@H](N)CCOc1cc(Cl)cc(Br)c1Cn1cnc2c(N)ncnc21 [Example 2, (R)-9-(2-(3-amino-4-methoxybutoxy)-6-bromo-4-chlorobenzyl)-9H-purin-6-amine] | > 100 | > 100 | 
COC[C@@H](N)CCOc1cc(Cl)cc(C)c1Cn1cnc2c(N)ncnc21 [Example 3, (S)-9-(2-(3-amino-4-methoxybutoxy)-4-chloro-6-methylbenzyl)-9H-purin-6-amine] | > 100 |  | > 3000
CCc1cc(Cl)cc(OCC[C@H](N)COC)c1Cn1cnc2c(N)ncnc21 [Example 4, (S)-9-(2-(3-amino-4-methoxybutoxy)-4-chloro-6-ethylbenzyl)-9H-purin-6-amine] | > 100 |  | > 3000
CC(C)COC[C@H](N)CCCOc1ccc(Cl)c(Cl)c1Cc1cnn2c(N)ncnc12 [Example 15, (R)-8-(6-((4-amino-5-isobutoxypentyl)oxy)-2,3-dichlorobenzyl)pyrazolo[1,5-a][1,3,5]triazin-4-amine] | > 100 | > 100 | 
NCCCCOc1cc(Cl)cc(Cl)c1Cn1cnc2c(N)nccc21 [Example 46, 1-(2-(4-aminobutoxy)-4,6-dichlorobenzyl)-1H-imidazo[4,5-c]pyridin-4-amine] | > 100 |  | 

Source: patent US12371434B2, “MLL1 inhibitors and anti-cancer agents” (NOVARTIS AG, priority 2020, dated 2025)
